Results on 5 compounds are retold here after patent publication US20260306525A1, “COMBINATION THERAPY GLUCOCORTICOIDS AND GINSENOSIDE” (FYTAGORAS B.V., priority 2023, published 2026).

Structures are written as SMILES.

One series has as its system neutrophils. The series can be described thus: zebrafish tail fin wounding assay, neutrophil migration to wounded site. The format is in vivo, zebrafish (Danio rerio). To be noted: for migration of neutrophils upon tail fin wounding: Example 2, PPT 50 μM, F1, Rh1, Rg1 100 μM, Bec positive control, 3 dpf; for reduction in neutrophil migration in presence of Gba2 inhibitor MZ31: MZ31 (10 μM) co-treatment; for migration of neutrophils towards the wounded site: 4 h after wounding. The protocol: Zebrafish (Danio rerio) were maintained and handled according to the guidelines from the Zebrafish Model Organism Database (http://zfin.org) and in compliance with the directives of the local animal welfare committee of Leiden University. Zebrafish were exposed to a 14 h light and 10 h dark cycle to maintain circadian rhythmicity. Fertilization was performed by natural spawning at the beginning of the light period. […] The following zebrafish lines were used in this study: the double transgenic line Tg(mpx:GFP^i114/mpeg1:mCherry^umsF001), in which neutrophils and macrophages are fluorescently labeled (green and red, respectively), and the Tg(9xGCRE-HSV.UI23:EGFP)^ia20 reporter line, in which the gene encoding enhanced green fluorescent protein (EGFP) is driven by a GRE-containing promoter.
For the tail fin wounding experiments, 20 larvae at 2 or 3 days post-fertilization (dpf) were utilized for each experimental group. For wounding, larvae were anesthetized in egg water containing 0.02% buffered aminobenzoic acid ethyl ester (tricaine; Sigma-Aldrich). Larvae were placed on Petri dishes coated with 2% agarose under a Leica M165C stereomicroscope (Leica Microsystems, Wetzlar, Germany), and the tails were partly amputated using a 1-mm sapphire blade (World Precision Instruments, Sarasota, FL, USA). For quantification of leukocyte migration, larvae were fixed overnight in 4% paraformaldehyde (PFA) at 4° C. The next day, fixed larvae were washed with Phosphate Buffered Saline (PBS) containing 0.1% Tween 20, and stored at 4° C. until imaging.
The macrophages were detected based on their red (mCherry) fluorescence, and neutrophils based on their green (EGFP) fluorescence. To quantify the number of macrophages and neutrophils recruited to the wounded area, the cells in a defined area of the tail were determined by blinded manual counting.
Zebrafish (Danio rerio) were maintained and handled according to the guidelines from the Zebrafish Model Organism Database (http://zfin.org) and in compliance with the directives of the local animal welfare committee of Leiden University. Zebrafish were exposed to a 14 h light and 10 h dark cycle to maintain circadian rhythmicity. Fertilization was performed by natural spawning at the beginning of the light period. […] The following zebrafish lines were used in this study: AB/TL wild type, the transgenic lines Tg(mpx:GFP^i114/mpeg1:mCherry^umsF001)[14, 15], and Tg(9xGCRE-HSV.UI23:EGFPia^20)[16], and the mutant lines grs357[20].
For the tail fin wounding experiments, 2- or 3-days post-fertilization (dpf) larvae were anesthetized in egg water containing 0.02% buffered aminobenzoic acid ethyl ester (tricaine; Sigma-Aldrich). Larvae were placed in Petri dishes coated with 2% agarose under a Leica M165C stereomicroscope (Leica Microsystems, Wetzlar, Germany), and the tails were partly amputated using a 1-mm sapphire blade (World Precision Instruments, Sarasota, FL, USA).
In experiments in which the leukocyte migration was used as a readout, larvae were subjected to treatment with chemicals as indicated, starting at 2 h before the amputation (pretreatment), and treatment was continued for 4 h after the tail fin amputation (20 larvae per group, unless indicated otherwise). In some experiments, a 24 h treatment with MZ31 (10 μM) was started at 2 dpf, and these treatments were continued during the pretreatment and treatment with the other chemicals. At 4 h after amputation, the larvae were fixed in 4% paraformaldehyde (PFA) overnight at 4° C. The next day, fixed larvae were washed with Phosphate Buffered Saline (PBS) containing 0.1% Tween 20 and stored at 4° C. until imaging. […] The macrophages were detected based on red (mCherry) fluorescence and neutrophils on their green (EGFP) fluorescence. To quantify the number of macrophages and neutrophils recruited to the wounded area, the cells in a defined area of the tail were determined by blinded manual counting. […]

The subject of another series is fkbp5. As to the kind of experiment: qPCR fkbp5 expression in zebrafish larvae. It counts as in vivo, zebrafish (Danio rerio). Particulars: for fkbp5 expression, short-term treatment / fkbp5 expression, long-term treatment: beclomethasone 10 μM, Rg1 50 μM or combination; for fkbp5 expression, long-term treatment: 5 days. The protocol: […] Groups of 15 larvae were collected in TRIzol reagent (ThermoFisher) and total RNA was isolated using miRNeasy mini kit (Qiagen, Hilden, Germany). For experiments in HeLa cells, cells were seeded in 6 well plates and after treatment, the cells were removed from the wells using TRIzol reagent and mRNA was isolated using miRNeasy mini kit (Qiagen) according to the manufacturer's instructions. The RNA samples were DNAse-treated utilizing the DNA-free™ DNA Removal Kit (ThermoFisher Scientific). The cDNA synthesis was performed using the iScript cDNA synthesis kit (Bio-Rad Laboratories, Hercules, CA, USA) using 1 μg of RNA per sample. For qPCR, 10 μM of forward primer and 10 μM of reverse primer, 12.5 μl of IQ SYBR Green Supermix (Bio-Rad Laboratories), and 2 μl of cDNA were added to the qPCR reaction mixture. […] The qPCR reactions were performed on a MyiQ-single-color real-time PCR detection system (Bio-Rad Laboratories), with initial denaturation for 3 min, 95° C., and 40 cycles of 15 s at 95.5° C., 15 s at 60° C., and 30 s at 72° C. Cycle threshold values (Ct values, i.e. the cycle numbers at which a threshold value of the fluorescence intensity was reached) were determined for each sample. The gene expression level for each sample was normalized using the expression of ppial (peptidylprolyl isomerase Ab (cyclophilin A)) for zebrafish samples, and 18S rRNA for human cells. The fold change per sample (compared to the respective control group) was calculated using the […]Ct method.
[…] Per sample, groups of 15 larvae were collected in TRIzol reagent (Thermo Fisher Scientific, Waltham, MA, USA), and total RNA was isolated using the miRNeasy mini kit (Qiagen, Hilden, Germany). For similar experiments in Hela cells, cells were seeded in 6 well plates, and after 6 h of chemical treatment, the cells were removed from the wells using TRIzol reagent, and total RNA was isolated using the miRNeasy mini kit according to the manufacturer's instructions. The RNA samples were DNAse-treated utilizing the DNA-free™ DNA Removal Kit (Thermo Fisher Scientific). The cDNA synthesis was performed using the iScript cDNA synthesis kit (Bio-Rad Laboratories, Hercules, CA, USA) using 1 μg of RNA per sample. For the PCR reactions, 10 μM of forward and 10 μM of reverse primer, 12.5 μl of iQ SYBR Green Supermix (Bio-Rad), and 2 μl of cDNA were added to the qPCR reaction mixture. […] The reactions were performed on a MyiQ-single-color real-time PCR detection system (Bio-Rad Laboratories) with initial denaturation for 3 min at 95° C. and 40 cycles of 15 s at 95.5° C., 15 s at 60° C., and 30 s at 72° C. Cycle threshold values (Ct values, i.e. the cycle numbers at which a threshold value of the fluorescence intensity was reached) were determined for each sample. The gene expression level for each sample was normalized using the expression of ppial (peptidylprolyl isomerase Ab (cyclophilin A)) for zebrafish samples, 18S rRNA for human cells. The fold change per sample (compared to the respective control group) was calculated using the ΔΔCt method.
Background: Quantitative PCR measures a nucleic acid by following its amplification.

The test system of another series is zebrafish larvae. As to the kind of experiment: tail fin regeneration assay. Particulars: for regeneration of amputated tail fin (length of regenerated tissue at 5 dpf): 0-5 dpf, 10 μM beclomethasone or dexamethasone, 50 μM Rg1 or combinations, amputation at 2 dpf; for tissue regeneration of tail fin: Example 2, amputation at 2 dpf, read at 5 dpf; for tissue regeneration upon wounding: Example 2, wounded at 2 dpf (second statement on FIG. 8F).

Setting [1] is: 3 dpf, wounded larvae, 6 h, 10 μM beclomethasone, 50 μM Rg1 or combination.

Turning to `CC(C)=CCC[C@](C)(O[C@@H]1O[C@H](CO)[C@@H](O)[C@H](O)[C@H]1O)[C@H]1CC[C@]2(C)[C@@H]1[C@H](O)C[C@@H]1[C@@]3(C)CC[C@H](O)C(C)(C)[C@@H]3[C@@H](O[C@@H]3O[C@H](CO)[C@@H](O)[C@H](O)[C@H]3O)C[C@]12C` [Rg1, (3β,6α, 12β)-3,12-Dihydroxydammar-24-ene-6,20-diyl bis-β-D-glucopyranoside], in the series with neutrophils, the “migration of neutrophils upon tail fin wounding” value is given as “inhibited the migration of neutrophils” and the “reduction in neutrophil migration in presence of Gba2 inhibitor MZ31” value (from here on “reduction … of Gba2 inhibitor MZ31”) is given as “this inhibitor abolished the effect of the polyglycosylated ginsenoside Rg1”. The “migration of neutrophils towards the wounded site” value in the series on neutrophils (Rg1 40 μM and lower) is given as “did not alter the neutrophil migration”. Moreover, the fkbp5 expression result in the series with fkbp5 (setting [1]) is recorded as “did not affect the expression of these genes”. For the same compound, the “fkbp5 expression, short-term treatment” value with fkbp5 (6 h) was “did not affect the expression of the genes”. For the same compound, in the series with fkbp5, the “fkbp5 expression, long-term treatment” value is given as “did not affect the expression of the genes”. The fkbp5 expression entry with fkbp5 (Example 2, 6 h treatment) was “did not increase the expression”. Besides, in the series on zebrafish larvae, the “regeneration of amputated tail fin (length of regenerated tissue at 5 dpf)” value was “did not affect the regenerative process”, the “tissue regeneration of tail fin” value was “did not show any side effects” and the “tissue regeneration upon wounding” value is “still not show any effect on the glucose or cortisol level or on tissue regeneration”.

In the case of `C[C@H]1C[C@H]2[C@@H]3CCC4=CC(=O)C=C[C@]4(C)[C@@]3(Cl)[C@@H](O)C[C@]2(C)[C@@]1(O)C(=O)CO` [beclomethasone, reference compound], in the series with neutrophils, the “migration of neutrophils upon tail fin wounding” value is “inhibited the migration of neutrophils”. Besides, the “migration of neutrophils towards the wounded site” value with neutrophils (beclomethasone 20 μM and 40 μM) is given as “did significantly reduce the neutrophil migration”. Further, in the series on neutrophils (beclomethasone lower than 10 μM), the “migration of neutrophils towards the wounded site” value was “did not affect the migration of neutrophils towards the wounded site”. Besides, the fkbp5 expression result in the series with fkbp5 (setting [1]) is “upregulated the expression of pck1 and fkbp5”. The “fkbp5 expression, short-term treatment” value in the series on fkbp5 (6 h) was “upregulated the expression”. The “fkbp5 expression, long-term treatment” value in the series on fkbp5 was “the upregulation of fkbp5 did not decrease”. Also, in the series with zebrafish larvae, the “regeneration of amputated tail fin (length of regenerated tissue at 5 dpf)” value is “inhibited the regeneration” and the “tissue regeneration of tail fin” value was “inhibited the tissue regeneration”.

As for `CC(C)=CCC[C@](C)(O)[C@H]1CC[C@]2(C)[C@@H]1[C@H](O)C[C@@H]1[C@@]3(C)CC[C@H](O)C(C)(C)[C@@H]3[C@@H](O[C@@H]3O[C@H](CO)[C@@H](O)[C@H](O)[C@H]3O)C[C@]12C` [Rh1], in the series with neutrophils, the “migration of neutrophils upon tail fin wounding” value was “inhibited the migration of neutrophils” and the “reduction … of Gba2 inhibitor MZ31” value is reported as “did not affect the reduction in neutrophil migration”. In addition, the fkbp5 expression result in the series with fkbp5 (Example 2, 6 h treatment) is reported as “did not increase the expression”. Besides, in the series on zebrafish larvae, the “tissue regeneration of tail fin” value is recorded as “did not show any side effects” and the “tissue regeneration upon wounding” value was “still not show any effect on the glucose or cortisol level or on tissue regeneration”.

As to `CC(C)=CCC[C@](C)(O[C@@H]1O[C@H](CO)[C@@H](O)[C@H](O)[C@H]1O)[C@H]1CC[C@]2(C)[C@@H]1[C@H](O)C[C@@H]1[C@@]3(C)CC[C@H](O)C(C)(C)[C@@H]3[C@@H](O)C[C@]12C` [F1], in the series on neutrophils, the “migration of neutrophils upon tail fin wounding” value is “inhibited the migration of neutrophils” and the “reduction … of Gba2 inhibitor MZ31” value is “did not affect the reduction in neutrophil migration”. In the series with fkbp5 (Example 2, 6 h treatment), the fkbp5 expression entry is given as “did not increase the expression”. For the same compound, in the series on zebrafish larvae, the “tissue regeneration of tail fin” value is “did not show any side effects”; the “tissue regeneration upon wounding” value is “minor effect on the cortisol level and on tissue regeneration”. Also, the “tissue regeneration effect in presence of Gba2 inhibitor MZ31” value in the series on zebrafish larvae (Example 2, wounded, with MZ31) is on record as “These latter effects were Gba2-dependent”.

Take `CC(C)=CCC[C@](C)(O)[C@H]1CC[C@]2(C)[C@@H]1[C@H](O)C[C@@H]1[C@@]3(C)CC[C@H](O)C(C)(C)[C@@H]3[C@@H](O)C[C@]12C` [PPT, Protopanaxatriol]: in the series on neutrophils, the “migration of neutrophils upon tail fin wounding” value is listed as “inhibited the migration of neutrophils” and the “reduction … of Gba2 inhibitor MZ31” value is on record as “did not affect the reduction in neutrophil migration”. Also, the fkbp5 expression entry with fkbp5 (Example 2, 6 h treatment) is recorded as “did not increase the expression”. In addition, the “tissue regeneration of tail fin” value with zebrafish larvae was “considerably inhibited the regeneration of the tail fin after wounding”.
